Test results taken from US20260262643A1, “HERBICIDAL BENZOXAZINES” (FMC CORPORATION, priority 2022, published 2026).
Where two headings read alike, the source gives them in different places.

Assays:
oat, wild [1] = experiment: Test A preemergence; type: in vivo, Avena fatua; settings: for pest or weed control at 125 g/ha: 125 g ai/ha
Summary of the method: (§1)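 Seeds in loam–sand blend received a directed preemergence soil spray of compound in non-phytotoxic solvent with surfactant; postemergence plants (2–10 cm, one- to two-leaf stage) were sprayed with the same formulation. After 10 days in greenhouse, injury was rated visually versus untreated controls, 0 (no effect) to 100 (complete control).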

sedge, umbrella = experiment: Test B flooded paddy test; type: in vivo, Cyperus difformis; settings: 250 g ai/ha, Flood, 13 days, 0 to 100 scale (0 no effect, 100 complete control)
Summary of the method: (§2)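 Compound is introduced into paddy water covering soil by 3 cm, treating plants that have reached two leaves. Pots are kept flooded at that depth under greenhouse conditions. Assessment at 13 days gives a 0–100 visual control score.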

soybean = experiment: Test A preemergence; type: in vivo, Glycine max; settings: for plant injury at 125 g/ha: 125 g ai/ha
Summary of the method: as §1

ryegrass, Italian = experiment: Test A postemergence; type: in vivo, Lolium multiflorum; settings: postemergence, 10 days, 0 to 100 scale (0 no effect, 100 complete control); for pest or weed control at 125 g/ha: 125 g ai/ha, read-out: Ryegrass, Italian plant response rating
Summary of the method: as §1

barnyardgrass = experiment: Test A preemergence; type: in vivo, Echinochloa crusgalli; settings: visual injury after 10 days, 0 to 100 scale, 0 is no effect, 100 is complete control
Summary of the method: as §1

kochia = experiment: Test A preemergence; type: in vivo, Bassia scoparia
Summary of the method: as §1

oat, wild [2] = experiment: Test A postemergence; type: in vivo, Avena fatua; settings: postemergence, 10 days
Summary of the method: as §1

blackgrass [3] = experiment: Test A preemergence; type: in vivo, Alopecurus myosuroides
Summary of the method: as §1

blackgrass [4] = experiment: Test A postemergence; type: in vivo, Alopecurus myosuroides; settings: postemergence, 10 days
Summary of the method: as §1

galium = experiment: Test A postemergence; type: in vivo, Galium aparine; settings: postemergence, 10 days, 0 to 100 scale (0 no effect, 100 complete control); for pest or weed control at 125 g/ha: 125 g ai/ha, read-out: Galium plant response rating
Summary of the method: as §1

ducksalad = experiment: Test B flooded paddy test; type: in vivo, Heteranthera limosa; settings: 250 g ai/ha, Flood, 13 days, 0 to 100 scale (0 no effect, 100 complete control)
Summary of the method: as §2

rice = experiment: Test B flooded paddy test; type: in vivo, Oryza sativa; settings: 250 g ai/ha, Flood, 13 days, 0 to 100 scale (0 no effect, 100 complete control)
Summary of the method: as §2

wheat = experiment: Test A postemergence; type: in vivo, Triticum aestivum; settings: postemergence, 10 days, 0 to 100 scale (0 no effect, 100 complete control); for plant injury at 125 g/ha: 125 g ai/ha, read-out: Wheat plant response rating
Summary of the method: as §1

[5] = 500 g ai/ha, visual injury after 10 days, 0 to 100 scale, 0 is no effect, 100 is complete control
[6] = Lolium multiflorum, post-emergence, 240 h
[7] = 125 g ai/ha, 0 to 100 scale, 0 no effect, 100 complete control
[8] = 500 g ai/ha, visual injury, 0 to 100 scale (0 no effect, 100 complete control)
[9] = Triticum aestivum, post-emergence, 240 h

CC(C)c1ncn(-c2cc(C(=O)N3C[C@H](C)Oc4c(Cl)cccc43)c3ccccc3c2)n1 [Compound 146]
Plant response rating, Oat, Wild (oat, wild [1]; [5]): 20
pest or weed control at 125 g/ha (oat, wild [1]; Avena fatua, pre-emergence, 240 h, 0 to 100 scale, read-out: Plant response rating, Oat, Wild): 0%
Plant response rating, Sedge, Umbrella (sedge, umbrella): 0
Plant response rating, Soybean (soybean; [5]): 20
plant injury at 125 g/ha (soybean; Glycine max, pre-emergence, 240 h, 0 to 100 scale, read-out: Plant response rating, Soybean): 0%
Plant response rating, Ryegrass, Italian (ryegrass, Italian; 500 g ai/ha, visual injury): 40
pest or weed control at 125 g/ha (ryegrass, Italian; [6]): 20%
Plant response rating, Barnyardgrass (barnyardgrass; 125 g ai/ha): 20
Plant response rating, Barnyardgrass (barnyardgrass; 500 g ai/ha): 70
Plant response rating, Kochia (kochia; 125 g ai/ha, 0 to 100 scale): 10
Plant response rating, Kochia (kochia; [5]): 30
Oat, Wild plant response rating (oat, wild [2]; [7]): 0
Plant response rating, Oat, Wild (oat, wild [2]; [8]): 10
Plant response rating, Blackgrass (blackgrass [3]; 125 g ai/ha, 0 to 100 scale): 70
Plant response rating, Blackgrass (blackgrass [3]; [5]): 90
Blackgrass plant response rating (blackgrass [4]; [7]): 10
Plant response rating, Blackgrass (blackgrass [4]; [8]): 20
Plant response rating, Galium (galium; 500 g ai/ha, visual injury): 80
pest or weed control at 125 g/ha (galium; Galium, post-emergence, 240 h): 50%
Plant response rating, Ducksalad (ducksalad): 0
Plant response rating, Rice (rice): 0
Plant response rating, Wheat (wheat; 500 g ai/ha, visual injury): 30
plant injury at 125 g/ha (wheat; [9]): 20%

Cc1cccc2c1O[C@@H](C)CN2C(=O)c1cccc(-n2cnc(C3COC3)n2)c1 [Compound 109, [(2S)-2,3-Dihydro-2,8-dimethyl-4H-1,4-benzoxazin-4-yl][3-[3-(3-oxetanyl)-1H-1,2,4-triazol-1-yl]phenyl]methanone]
pest or weed control at 125 g/ha (oat, wild [1]; Avena fatua, pre-emergence, 240 h, visual injury after 10 days, 0 to 100 scale, 0 is no effect, 100 is complete control, read-out: Plant response rating, Oat, Wild): 50%
pest or weed control at 500 g/ha (oat, wild [1]; Avena fatua, pre-emergence, 240 h, 500 g ai/ha, 0 to 100 scale (0 no effect, 100 complete control), 10 days, read-out: Plant response rating, Oat, Wild): 90%
pest or weed control at 250 g/ha (sedge, umbrella; Cyperus difformis, 312 h, read-out: Plant response rating, Sedge, Umbrella): 98%
plant injury at 125 g/ha (soybean; Glycine max, pre-emergence, 240 h, visual injury after 10 days, 0 to 100 scale, 0 is no effect, 100 is complete control, read-out: Plant response rating, Soybean): 30%
plant injury at 500 g/ha (soybean; Glycine max, pre-emergence, 240 h, 500 g ai/ha, 0 to 100 scale (0 no effect, 100 complete control), 10 days, read-out: Plant response rating, Soybean): 80%
pest or weed control at 125 g/ha (ryegrass, Italian; [6]): 50%
pest or weed control at 500 g/ha (ryegrass, Italian; Lolium multiflorum, post-emergence, 240 h, 500 g ai/ha, visual injury, read-out: Plant response rating, Ryegrass, Italian): 100%
Plant response rating, Barnyardgrass (barnyardgrass; 125 g ai/ha): 90
pest or weed control at 125 g/ha (kochia; Bassia scoparia, pre-emergence, 240 h, 125 g ai/ha, visual injury after 10 days, 0 to 100 scale, 0 is no effect, 100 is complete control, read-out: Plant response rating, Kochia): 60%
pest or weed control at 500 g/ha (kochia; Bassia scoparia, pre-emergence, 240 h, 500 g ai/ha, 0 to 100 scale (0 no effect, 100 complete control), 10 days, read-out: Plant response rating, Kochia): 90%
pest or weed control at 125 g/ha (oat, wild [2]; Avena fatua, post-emergence, 240 h, 125 g ai/ha, 0 to 100 scale (0 no effect, 100 complete control), read-out: Oat, Wild plant response rating): 80%
pest or weed control at 500 g/ha (oat, wild [2]; Avena fatua, post-emergence, 240 h, 500 g ai/ha, visual injury, 0 to 100 scale (0 no effect, 100 complete control), read-out: Plant response rating, Oat, Wild): 80%
pest or weed control at 125 g/ha (blackgrass [3]; Alopecurus myosuroides, pre-emergence, 240 h, 125 g ai/ha, visual injury after 10 days, 0 to 100 scale, 0 is no effect, 100 is complete control, read-out: Plant response rating, Blackgrass): 80%
pest or weed control at 500 g/ha (blackgrass [3]; Alopecurus myosuroides, pre-emergence, 240 h, 500 g ai/ha, 0 to 100 scale (0 no effect, 100 complete control), 10 days, read-out: Plant response rating, Blackgrass): 90%
pest or weed control at 125 g/ha (blackgrass [4]; Alopecurus myosuroides, post-emergence, 240 h, 125 g ai/ha, 0 to 100 scale (0 no effect, 100 complete control), read-out: Blackgrass plant response rating): 70%
pest or weed control at 500 g/ha (blackgrass [4]; Alopecurus myosuroides, post-emergence, 240 h, 500 g ai/ha, visual injury, 0 to 100 scale (0 no effect, 100 complete control), read-out: Plant response rating, Blackgrass): 90%
pest or weed control at 125 g/ha (galium; Galium, post-emergence, 240 h): 70%
pest or weed control at 500 g/ha (galium; Galium, post-emergence, 240 h, 500 g ai/ha, visual injury, read-out: Plant response rating, Galium): 100%
pest or weed control at 250 g/ha (ducksalad; Heteranthera limosa, 312 h, read-out: Plant response rating, Ducksalad): 75%
plant injury at 250 g/ha (rice; Oryza sativa, 312 h, read-out: Plant response rating, Rice): 0%
plant injury at 125 g/ha (wheat; [9]): 40%
plant injury at 500 g/ha (wheat; Triticum aestivum, post-emergence, 240 h, 500 g ai/ha, visual injury, read-out: Plant response rating, Wheat): 90%
